{"source": "paper PMC4159591", "about": "“Crystal structure of an HD‐GYP domain cyclic‐di‐GMP phosphodiesterase reveals an enzyme with a novel trinuclear catalytic iron centre” (Molecular Microbiology, 2013)", "key": {"PmGH [1]": {"biological_target": "T1, PmGH (Persephonella marina, UniProt C0QQ26, C41A/C197A)", "T1 construct": "gene PERMA_0986; GAF + HD-GYP domains; synthetic gene in pET47b, E. coli BL21(DE3); N-terminal His6 tag cut with HRV 3C; homodimer; tri-iron centre", "T1 sequence (C0QQ26 entry or part of it C41A/C197A)": "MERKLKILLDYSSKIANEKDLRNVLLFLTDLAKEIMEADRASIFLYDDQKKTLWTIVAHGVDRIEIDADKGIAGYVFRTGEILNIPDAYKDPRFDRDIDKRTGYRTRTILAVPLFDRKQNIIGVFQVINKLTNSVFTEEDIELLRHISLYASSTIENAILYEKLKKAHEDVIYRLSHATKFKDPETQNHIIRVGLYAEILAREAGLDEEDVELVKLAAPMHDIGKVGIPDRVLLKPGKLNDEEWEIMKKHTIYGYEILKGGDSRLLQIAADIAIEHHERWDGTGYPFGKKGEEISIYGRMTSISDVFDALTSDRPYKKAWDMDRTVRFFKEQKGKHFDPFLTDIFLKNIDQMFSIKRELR", "experiment": "X-ray crystal structure (crystal soak), […] A", "format": "binding", "conditions": "crystals soaked with 30 mM GMP; tri-iron centre intact; active site, phosphate bridges M and H iron sites; monomer B only"}, "PmGH [2]": {"biological_target": "T2, PmGH (Persephonella marina, UniProt C0QQ26, C41A/E185A/C197A)", "T2 construct": "gene PERMA_0986; GAF + HD-GYP domains; synthetic gene in pET47b, E. coli BL21(DE3); N-terminal His6 tag cut with HRV 3C; homodimer; tri-iron centre", "T2 sequence (C0QQ26 entry or part of it C41A/E185A/C197A)": "as the sequence (C0QQ26 entry or part of it C41A/C197A) above, with E185A counted along it", "experiment": "HPLC phosphodiesterase assay", "format": "biochemical", "conditions": "100 uM c-di-GMP, pH 7.6, 10 mM MgCl2, 10 mM MnCl2, 0.5 mM EDTA, 37 C"}, "PmGH [3]": {"biological_target": "T3, PmGH (Persephonella marina, UniProt C0QQ26, C41A/C197A/D305A)", "T3 construct": "gene PERMA_0986; GAF + HD-GYP domains; synthetic gene in pET47b, E. coli BL21(DE3); N-terminal His6 tag cut with HRV 3C; homodimer; tri-iron centre", "T3 sequence (C0QQ26 entry or part of it C41A/C197A/D305A)": "as the sequence (C0QQ26 entry or part of it C41A/C197A) above, with D305A counted along it", "experiment": "HPLC phosphodiesterase assay", "format": "biochemical", "conditions": "100 uM c-di-GMP, pH 7.6, 10 mM MgCl2, 10 mM MnCl2, 0.5 mM EDTA, 37 C"}, "PmGH [4]": {"biological_target": "T1, PmGH", "experiment": "X-ray crystal structure (crystal soak), […] A; hydrolysis in solution shown by HPLC", "format": "binding", "conditions": "crystals soaked with 25 mM c-di-GMP and 100 mM EDTA; only G-site Fe bound; bound to monomer B only, HD-GYP active site"}, "[5]": {"biological_target": "GAF/HD-GYP protein from Persephonella marina EX-H1 (PmGH) (Persephonella marina EX-H1) (UniProt C0QQ26)", "experiment": "crystal structure; hanging drop vapour diffusion, 0.1 M MES pH 6.5, 0.9 M succinic acid, 2% PEG 2000; space group I222 with one dimer in the asymmetric unit; native structure at 2.03 Å"}}}
{"compound": "Nc1nc2c(ncn2[C@@H]2O[C@H](COP(=O)(O)O)[C@@H](O)[C@H]2O)c(=O)[nH]1", "note": "[GMP]", "values": [{"measurement": "X-ray crystal structure (crystal soak), 2.55 A", "setting": "PmGH [1]", "value": "Crystal soaks with GMP and c‐di‐GMP gave identical structures of PmGH in complex with GMP"}]}
{"compound": "Nc1nc2c(ncn2[C@@H]2O[C@@H]3COP(=O)(O)O[C@H]4[C@@H](O)[C@H](n5cnc6c(=O)[nH]c(N)nc65)O[C@@H]4COP(=O)(O)O[C@H]3[C@H]2O)c(=O)[nH]1", "note": "[c-di-GMP]", "values": [{"measurement": "c-di-GMP hydrolysis", "setting": "PmGH [2]", "value": "marked reduction in their ability to hydrolyse c‐di‐GMP, hydrolysis of c‐di‐GMP is still detected"}, {"measurement": "c-di-GMP hydrolysis", "setting": "PmGH [3]", "value": "marked reduction in their ability to hydrolyse c‐di‐GMP, hydrolysis of c‐di‐GMP is still detected"}, {"measurement": "X-ray crystal structure (crystal soak), 2.68 A; hydrolysis in solution shown by", "setting": "PmGH [4]", "value": "revealed well defined difference electron density for a bound c‐di‐GMP molecule at the active site"}]}
{"compound": "GAF/HD-GYP protein from Persephonella marina EX-H1 (PmGH) (from UniProt C0QQ26 2-363) (enzyme)", "values": [{"measurement": "stoichiometry N", "setting": "[5]", "value": 2}]}
